Among the data in US20120149700A1, “2-CYANOPHENYL FUSED HETEROCYCLIC COMPOUNDS, AND COMPOSTIONS AND USES THEREOF” (priority 2007, published 2012) are IC50 values, retold here.

The target of one assay is T1, P2X3 (Homo sapiens, UniProt P56373).
T1 construct: expressed in transfected cells; host or cells: e.g. HEK293 or 1321N1
T1 sequence (P56373 1-397): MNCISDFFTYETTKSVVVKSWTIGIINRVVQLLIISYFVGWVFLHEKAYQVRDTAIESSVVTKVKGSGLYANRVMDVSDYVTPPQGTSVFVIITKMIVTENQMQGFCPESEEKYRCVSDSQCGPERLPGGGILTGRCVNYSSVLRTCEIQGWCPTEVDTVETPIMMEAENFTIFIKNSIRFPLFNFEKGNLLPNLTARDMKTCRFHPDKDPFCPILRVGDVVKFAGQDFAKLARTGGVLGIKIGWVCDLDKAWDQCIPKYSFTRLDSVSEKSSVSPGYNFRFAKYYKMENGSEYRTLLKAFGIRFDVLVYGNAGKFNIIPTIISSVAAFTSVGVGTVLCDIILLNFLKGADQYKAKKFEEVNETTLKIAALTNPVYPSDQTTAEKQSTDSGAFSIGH
The assay can be described thus: Calcium uptake assay (P2X antagonist assay, inhibition of agonist-induced calcium influx), P2X3. The class given is cell-based. The following applies: inhibition of agonist-induced calcium influx in cells expressing the receptor. An excerpt: (§1) The human P2X2/3 chimera clone is created as described by Neelands et al, and then cloned into an expression vector as above. Receptors are expressed in cells (e.g., HEK293 or 1321N1 (obtained from the ECACC)) via transient transfection using standard lipid mediated transfection, or by creation of stable transfectants for each receptor. For expression of the P2X2/3 heteromeric receptor, the P2X3 expression vector is stably transfected into a cell line already stably expressing P2X2. P2X2/3 heteromer function is isolated using pharmacological methods. Cell lines are maintained in DMEM+5% Glutamax, the appropriate level of selective antibiotic, and 10% heat inactivated FBS.
(§2) Functional activity of compounds at the P2X receptor is determined by measuring their ability to inhibit agonist-induced calcium influx. Compounds are tested for antagonist activity against the P2X2/3 chimera, the P2X3 homomer, or the P2X2/3 heteromer. At the start of each screening day, the agonist EC50 is determined. Compound % inhibition or IC50s are subsequently determined using a pre-determined agonist concentration (EC50-90 depending on cell line) as a stimulus. The agonists used are αβMeATP, ATP, or other ATP analogs. Compounds may be tested at concentrations ranging from 1 pM to 10 μM.
(§3) To test for antagonist activity, cells expressing the appropriate receptor are seeded onto 96 or 384 well plates 18-24 hours prior to assay. […] Plates are incubated at 37° C. and then equilibrated at room temperature. Antagonism of agonist-induced calcium influx is measured using a fluorescent imaging plate reader (e.g. FLIPR^TETRA, Molecular Devices, Sunnyvale, Calif.). The assay comprises two stages: a pre-treatment phase followed by a treatment phase. Compounds may be tested as follows: For the pre-treatment phase, 50 μL of 3× concentration of test compound in HBSS is added to cells containing 100 μL of dye loading media to achieve a final concentration of 1× test compound. For the treatment phase, at a set interval after pre-treatment (1-30 minutes), 50 μl, of 1× test compound plus 4× agonist solution is added, resulting in a final concentration of 1× compound and 1× agonist. […] Responses are measured as (peak fluorescence after agonist addition) minus (baseline fluorescence prior to treatment). Percent inhibition is calculated as follows: […]
(§4) IC50 values are determined by analyzing dose response data in a 4 parameter logistic fit using GraphPad Prizm.

In another assay the target is T2, P2X2/3 (Homo sapiens, UniProt P56373+Q9UBL9).
T2 construct: expressed in transfected cells; host or cells: cell line stably expressing P2X2, stably transfected with P2X3 (e.g. HEK293 or 1321N1)
T2 sequence (Q9UBL9 1-471): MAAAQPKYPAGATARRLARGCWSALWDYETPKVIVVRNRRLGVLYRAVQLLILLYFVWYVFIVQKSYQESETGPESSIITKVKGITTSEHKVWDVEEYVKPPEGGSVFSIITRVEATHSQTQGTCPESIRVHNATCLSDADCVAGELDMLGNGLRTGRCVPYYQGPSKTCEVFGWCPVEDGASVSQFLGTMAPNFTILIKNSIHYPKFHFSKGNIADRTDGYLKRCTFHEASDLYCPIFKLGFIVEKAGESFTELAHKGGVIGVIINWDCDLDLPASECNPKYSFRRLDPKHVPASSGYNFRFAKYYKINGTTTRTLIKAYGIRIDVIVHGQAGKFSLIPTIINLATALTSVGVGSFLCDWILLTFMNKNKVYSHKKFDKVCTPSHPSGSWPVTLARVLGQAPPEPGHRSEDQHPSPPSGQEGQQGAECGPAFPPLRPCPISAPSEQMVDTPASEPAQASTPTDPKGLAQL
T2 sequence (P56373 1-397): T1 sequence (P56373 1-397)
The assay can be described thus: Calcium uptake assay (P2X antagonist assay, inhibition of agonist-induced calcium influx), P2X2/3. Format: cell-based. The following applies: inhibition of agonist-induced calcium influx in cells expressing the receptor.
Description: as §1, §2, §3, §4

Turning to `N#Cc1cc(Cl)ccc1N1CCc2ncnc(N[C@H](CCO)c3ccc(C(F)F)nc3)c2C1` [Compound 62, 5-Chloro-2-{4-[(R)-1-(6-difluoromethyl-pyridin-3-yl)-3-hydroxy-propylamino]-7,8-dihydro-5H-pyrido[4,3-d]pyrimidin-6-yl}-benzonitrile], the IC50 (as a rule, the concentration that gives 50% inhibition) on P2X3 is 32 nM; at P2X2/3, 273 nM.
The corresponding values for `Cc1ccc(N2CCc3ncnc(NCc4ccc(C)c(N5CCOCC5)c4)c3C2)c(C#N)c1` [Compound 63, 5-Methyl-2-[4-(4-methyl-3-morpholin-4-yl-benzylamino)-7,8-dihydro-5H-pyrido[4,3-d]pyrimidin-6-yl]-benzonitrile] are 96 nM and 1120 nM.
With `Cc1ccc(N2CCc3ncnc(N[C@H](CCO)c4ccc(C(F)(F)F)nc4)c3C2)c(C#N)c1` [Compound 64, 2-{4-[(R)-3-Hydroxy-1-(6-trifluoromethyl-pyridin-3-yl)-propylamino]-7,8-dihydro-5H-pyrido[4,3-d]pyrimidin-6-yl}-5-methyl-benzonitrile], the concentration for half-maximal inhibition (IC50) at P2X3 is 23 nM; at P2X2/3, 59 nM.
On to `Cc1ccc(N2CCc3ncnc(N[C@@H](CCO)c4ccc(C(F)(F)F)nc4)c3C2)c(C#N)c1` [Compound 65, 2-{4-[(S)-3-Hydroxy-1-(6-trifluoromethyl-pyridin-3-yl)-propylamino]-7,8-dihydro-5H-pyrido[4,3-d]pyrimidin-6-yl}-5-methyl-benzonitrile], for which the IC50 was determined as 806 nM at P2X3 and 5420 nM at P2X2/3.
In the same order, the values of `Cc1ccc(N2CCc3ncnc(NCc4ccc(Cl)c(S(C)(=O)=O)c4)c3C2)c(C#N)c1` [Compound 71, 2-[4-(4-Chloro-3-methanesulfonyl-benzylamino)-7,8-dihydro-5H-pyrido[4,3-d]pyrimidin-6-yl]-5-methyl-benzonitrile] are 37 nM and 120 nM.
The corresponding values for `N#Cc1cc(Cl)ccc1N1CCc2ncnc(N[C@H](CO)c3ccc(C(F)F)nc3)c2C1` [Compound 72, 5-Chloro-2-[4-[(S)-1-(6-difluoromethyl-pyridin-3-yl)-2-hydroxy-ethylamino]-7,8-dihydro-5H-pyrido[4,3-d]pyrimidin-6-yl]-benzonitrile] are 16 nM and 404 nM.
On to `Cc1ccc(CNc2ncnc3c2CN(c2ccc(Cl)cc2C#N)CC3)cc1S(C)(=O)=O` [Compound 76, 5-Chloro-2-[4-(3-methanesulfonyl-4-methyl-benzylamino)-7,8-dihydro-5H-pyrido[4,3-d]pyrimidin-6-yl]-benzonitrile], for which the IC50 at P2X3 worked out at 40 nM; on P2X2/3, 241 nM.
In the same order, the values of `CC(=O)OCC[C@@H](Nc1ncnc2c1CN(c1ccc(C)cc1C#N)CC2)c1ccc(C(F)(F)F)nc1` [Compound 77, Acetic acid (R)-3-[6-(2-cyano-4-methyl-phenyl)-5,6,7,8-tetrahydro-pyrido[4,3-d]pyrimidin-4-ylamino]-3-(6-trifluoromethyl-pyridin-3-yl)-propyl ester] are 130 nM and 536 nM.
As for `Cc1ccc(N2CCc3ncnc(NCc4ccc5nccnc5c4)c3C2)c(C#N)c1` [Compound 79, 5-Methyl-2-(4-(quinoxalin-6-ylmethylamino)-7,8-dihydropyrido[4,3-d]pyrimidin-6(5H)-yl)benzonitrile], the half-inhibitory concentration (IC50) was 34 nM at P2X3 and 67 nM on P2X2/3.
Turning to `Cc1ccc(N2CCc3ncnc(NCc4ccc5ccccc5n4)c3C2)c(C#N)c1` [Compound 80, 5-Methyl-2-(4-(quinolin-2-ylmethylamino)-7,8-dihydropyrido[4,3-d]pyrimidin-6(5H)-yl)benzonitrile], the values for the IC50 on P2X3 and at P2X2/3 were 156 nM and 263 nM, respectively.
In the case of `Cc1ccc(N2CCc3ncnc(NCc4ccc5cc[nH]c5c4)c3C2)c(C#N)c1` [Compound 81, 2-(4-((1H-Indol-6-yl)methylamino)-7,8-dihydropyrido[4,3-d]pyrimidin-6(5H)-yl)-5-methylbenzonitrile], the IC50 at P2X3 came out at 423 nM; at P2X2/3, 2160 nM.
For the molecule `Cc1ccc(N2CCc3ncnc(NCc4ccc5c(c4)OCO5)c3C2)c(C#N)c1` [Compound 82, 2-(4-(Benzo[d][1,3]dioxol-5-ylmethylamino)-7,8-dihydropyrido[4,3-d]pyrimidin-6(5H)-yl)-5-methylbenzonitrile], the IC50 at P2X3 came out at 56 nM; on P2X2/3, 310 nM.
Regarding `N#Cc1cc(Cl)ccc1N1CCc2ncnc(NCc3ccc4nccnc4c3)c2C1` [Compound 84, 5-Chloro-2-{4-[(quinoxalin-6-ylmethyl)-amino]-7,8-dihydro-5H-pyrido[4,3-d]pyrimidin-6-yl}-benzonitrile], the IC50 on P2X3 stood at 125 nM; at P2X2/3, 478 nM.
In the same order, the values of `Cc1ccc(N2CCc3ncnc(NCc4ccc5cccnc5c4)c3C2)c(C#N)c1` [Compound 92, 5-Methyl-2-(4-(quinolin-7-ylmethylamino)-7,8-dihydropyrido[4,3-d]pyrimidin-6(5H)-yl)benzonitrile] are 20 nM and 24 nM.
